Assay results published in ChEMBL document CHEMBL1135982, “New strategy for antedrug application: development of metalloproteinase inhibitors as antipsoriatic drugs” (J Med Chem, 2002).

How the values were obtained:
[1] = target: Disintegrin and metalloproteinase domain-containing protein 17 (Homo sapiens, UniProt P78536); experiment: Inhibition of heparin-binding epidermal growth factor (HB-EGF) shedding; type: functional
[2] = target: Matrix metalloproteinase-9 (Homo sapiens, UniProt P14780); experiment: Inhibition of Matrix metalloprotease-9 (MMP-9)
Chain of Matrix metalloproteinase-9 (P14780 whole entry): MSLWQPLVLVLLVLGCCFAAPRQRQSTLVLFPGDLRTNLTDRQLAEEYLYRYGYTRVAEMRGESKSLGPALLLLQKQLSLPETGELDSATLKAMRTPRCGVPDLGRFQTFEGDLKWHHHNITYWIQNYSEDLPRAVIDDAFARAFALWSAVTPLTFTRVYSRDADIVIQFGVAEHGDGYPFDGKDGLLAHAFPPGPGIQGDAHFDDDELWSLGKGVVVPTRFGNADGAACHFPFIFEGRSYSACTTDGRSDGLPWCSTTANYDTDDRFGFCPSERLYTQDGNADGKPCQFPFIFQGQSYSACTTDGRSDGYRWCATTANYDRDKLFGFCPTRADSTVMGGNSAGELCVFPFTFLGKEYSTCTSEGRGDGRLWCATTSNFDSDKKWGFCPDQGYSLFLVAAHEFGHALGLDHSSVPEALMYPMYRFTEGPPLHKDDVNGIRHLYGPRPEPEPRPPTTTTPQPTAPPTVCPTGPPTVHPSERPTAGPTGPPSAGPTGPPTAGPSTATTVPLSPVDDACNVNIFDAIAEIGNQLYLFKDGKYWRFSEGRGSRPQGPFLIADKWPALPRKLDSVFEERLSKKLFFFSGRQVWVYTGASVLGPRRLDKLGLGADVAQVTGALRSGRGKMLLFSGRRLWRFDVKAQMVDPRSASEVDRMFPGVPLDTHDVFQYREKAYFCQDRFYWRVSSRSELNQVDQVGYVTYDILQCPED

Interstitial collagenase = target: T1, Interstitial collagenase (Homo sapiens, UniProt P03956); experiment: Inhibition of Matrix metalloprotease-1 (MMP-1)
T1 sequence (P03956 whole entry): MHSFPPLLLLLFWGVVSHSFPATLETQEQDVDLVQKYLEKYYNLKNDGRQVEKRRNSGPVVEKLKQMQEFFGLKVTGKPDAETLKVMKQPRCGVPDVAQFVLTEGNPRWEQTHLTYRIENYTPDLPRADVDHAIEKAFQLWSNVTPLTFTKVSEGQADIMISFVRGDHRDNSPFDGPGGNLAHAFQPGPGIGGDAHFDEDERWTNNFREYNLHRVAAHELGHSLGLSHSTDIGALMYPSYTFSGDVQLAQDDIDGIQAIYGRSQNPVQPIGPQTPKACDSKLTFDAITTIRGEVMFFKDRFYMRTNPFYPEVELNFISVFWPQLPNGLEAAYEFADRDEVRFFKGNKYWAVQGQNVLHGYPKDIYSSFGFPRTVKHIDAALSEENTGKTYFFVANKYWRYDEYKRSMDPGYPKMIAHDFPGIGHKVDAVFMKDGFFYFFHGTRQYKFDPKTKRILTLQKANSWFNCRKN

Amphiregulin = target: T2, Amphiregulin (Homo sapiens, UniProt P15514); experiment: In vitro amphiregulin shedding inhibition; type: functional
T2 sequence (P15514 whole entry): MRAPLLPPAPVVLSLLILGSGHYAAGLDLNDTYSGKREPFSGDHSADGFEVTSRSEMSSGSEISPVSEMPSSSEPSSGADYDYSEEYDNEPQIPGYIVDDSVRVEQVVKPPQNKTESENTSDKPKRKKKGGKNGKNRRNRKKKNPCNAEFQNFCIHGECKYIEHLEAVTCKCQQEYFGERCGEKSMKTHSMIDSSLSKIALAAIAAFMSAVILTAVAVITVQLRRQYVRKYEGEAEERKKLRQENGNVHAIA

Stromelysin-1 = Stromelysin-1 (Homo sapiens, UniProt P08254); experiment: Inhibition of Matrix metalloprotease-3 (MMP-3)
Chain of Stromelysin-1 (P08254 whole entry): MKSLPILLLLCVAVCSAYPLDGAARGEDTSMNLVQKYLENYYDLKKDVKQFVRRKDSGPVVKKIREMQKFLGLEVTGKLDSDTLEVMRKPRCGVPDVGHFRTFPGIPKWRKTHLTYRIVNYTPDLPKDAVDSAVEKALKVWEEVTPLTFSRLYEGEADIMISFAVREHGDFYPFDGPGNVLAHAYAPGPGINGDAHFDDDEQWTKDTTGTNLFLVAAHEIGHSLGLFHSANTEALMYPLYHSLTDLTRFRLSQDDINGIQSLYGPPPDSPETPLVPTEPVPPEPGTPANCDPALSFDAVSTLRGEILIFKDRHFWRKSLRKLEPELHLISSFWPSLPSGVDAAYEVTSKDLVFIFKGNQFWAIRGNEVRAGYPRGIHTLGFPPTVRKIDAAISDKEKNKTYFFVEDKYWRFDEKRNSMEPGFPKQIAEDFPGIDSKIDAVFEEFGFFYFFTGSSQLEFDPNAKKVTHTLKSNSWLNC

Mus musculus [3] = species: Mus musculus; experiment: Activity against TPA-induced epidermal hyperplasia in mice, and percent decrease in TPA-induced hyperplasia was reported; type: functional
Mus musculus [4] = species: Mus musculus; experiment: Activity against TPA-induced epidermal hyperplasia in mice, and epidermal thickness value was reported; type: functional; set-up: unit not given here
Homo sapiens = species: Homo sapiens; experiment: Stability in human plasma and percentage of compound remained after 60 minutes was reported; type: functional, cell-free

Chain of Disintegrin and metalloproteinase domain-containing protein 17 (P78536 whole entry, the tested form may be a part): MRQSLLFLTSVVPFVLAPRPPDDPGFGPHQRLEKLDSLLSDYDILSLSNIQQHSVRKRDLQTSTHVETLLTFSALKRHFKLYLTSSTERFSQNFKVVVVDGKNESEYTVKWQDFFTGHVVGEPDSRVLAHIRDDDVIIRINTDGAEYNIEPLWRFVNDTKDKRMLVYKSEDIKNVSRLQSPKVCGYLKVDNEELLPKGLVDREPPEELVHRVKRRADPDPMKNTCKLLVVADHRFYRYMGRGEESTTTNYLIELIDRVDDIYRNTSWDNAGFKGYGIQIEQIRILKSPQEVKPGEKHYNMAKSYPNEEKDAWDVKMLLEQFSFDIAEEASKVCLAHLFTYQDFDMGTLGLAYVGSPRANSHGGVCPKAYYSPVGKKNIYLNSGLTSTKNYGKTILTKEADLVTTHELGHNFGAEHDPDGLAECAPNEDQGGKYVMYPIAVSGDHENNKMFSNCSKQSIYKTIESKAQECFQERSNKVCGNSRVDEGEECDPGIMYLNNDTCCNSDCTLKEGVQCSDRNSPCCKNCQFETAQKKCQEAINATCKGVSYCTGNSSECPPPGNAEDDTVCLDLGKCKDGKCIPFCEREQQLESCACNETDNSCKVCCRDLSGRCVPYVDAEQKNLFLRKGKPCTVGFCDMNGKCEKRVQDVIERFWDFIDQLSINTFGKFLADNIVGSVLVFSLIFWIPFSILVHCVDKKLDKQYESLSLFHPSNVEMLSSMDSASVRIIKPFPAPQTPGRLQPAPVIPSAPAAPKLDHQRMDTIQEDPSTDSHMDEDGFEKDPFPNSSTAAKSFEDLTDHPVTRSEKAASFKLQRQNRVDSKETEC

| SMILES | IC50 [1] | Ki [2] | Ki (Interstitial collagenase) | IC50 (Amphiregulin) | Ki (Stromelysin-1) | Decrease (Mus musculus [3]) | Epidermal thickness (Mus musculus [4]) | Stability (Homo sapiens) |
| --- | --- | --- | --- | --- | --- | --- | --- | --- |
| COc1ccc([P@](=O)(OCC(F)F)N2Cc3ccccc3C[C@@H]2C(=O)NO)cc1 | 510 nM | 4.97 nM | 6 nM | 1470 nM | 6.67 nM |  |  |  |
| COc1ccc(P(=O)(OC)N2Cc3ccccc3CC2C(=O)NO)cc1 (stereo unspecified) | < 1000 nM |  |  |  |  |  |  |  |
| CCCCCCCCCCCCCC(=O)O[C@@H]1[C@@H](C)[C@]2(O)C3C=C(C)C(=O)[C@@]3(O)CC(CO)=C[C@H]2[C@@H]2C(C)(C)[C@]12OC(C)=O.COc1ccc([P@](=O)(OCC(F)F)N2Cc3ccccc3C[C@@H]2C(=O)NO)cc1 (stereo partly specified) |  |  |  |  |  | 57.7% | <39.7 |  |
| CCO[P@](=O)(c1ccc(OC)cc1)N1Cc2ccccc2C[C@@H]1C(=O)NO | > 10000 nM | > 800 nM |  |  |  |  |  |  |
| CCO[P@@](=O)(c1ccc(OC)cc1)N1Cc2ccccc2C[C@@H]1C(=O)NO | 230 nM | 5.05 nM | 4.59 nM | 350 nM | 5.2 nM |  |  | 100% |
| O=C(NO)C1Cc2ccccc2CN1 (stereo unspecified) | > 10000 nM | > 800 nM |  |  | > 650 nM |  |  |  |
| CCCCCCCCCCCCCC(=O)O[C@@H]1[C@@H](C)[C@]2(O)C3C=C(C)C(=O)[C@@]3(O)CC(CO)=C[C@H]2[C@@H]2C(C)(C)[C@]12OC(C)=O.COc1ccc([P@](=O)(OCC(F)(F)F)N2Cc3ccccc3C[C@@H]2C(=O)NO)cc1 (stereo partly specified) |  |  |  |  |  | 81.3% | <30.5 |  |
| COc1ccc([P@](=O)(OCC(F)(F)F)N2Cc3ccccc3C[C@@H]2C(=O)NO)cc1 | 730 nM | 3.68 nM | 6.57 nM | 950 nM | 6.75 nM |  |  |  |
| COc1ccc([P@](=O)(OCCF)N2Cc3ccccc3C[C@@H]2C(=O)NO)cc1 | 180 nM | 10.5 nM | 10.5 nM | 470 nM | 9.07 nM |  |  | 96% |
| COc1ccc([P@](=O)(OCCC(F)(F)F)N2Cc3ccccc3C[C@@H]2C(=O)NO)cc1 | 310 nM | 4.46 nM | 2.21 nM | 970 nM | 3.33 nM |  |  | 99% |
| CCCCCCCCCCCCCC(=O)O[C@@H]1[C@@H](C)[C@]2(O)C3C=C(C)C(=O)[C@@]3(O)CC(CO)=C[C@H]2[C@@H]2C(C)(C)[C@]12OC(C)=O.CCO[P@@](=O)(c1ccc(OC)cc1)N1Cc2ccccc2C[C@@H]1C(=O)NO (stereo partly specified) |  |  |  |  |  | 45.6% | <44.4 |  |
| CCCCCCCCCCCCCC(=O)O[C@@H]1[C@@H](C)[C@@]2(O)[C@@H](C=C(CO)C[C@]3(O)C(=O)C(C)=C[C@@H]23)[C@@H]2C(C)(C)[C@]12OC(C)=O [PHORBOL MYRISTATE ACETATE] |  |  |  |  |  |  | 62.2 |  |
